# Experimental data from ChEMBL document CHEMBL4602644, “Synthesis of PJOV56, a new quinoxalinyl-hydrazone derivative able to induce autophagy and apoptosis in colorectal cancer cells, and related compounds” (Bioorg Med Chem Lett, 2020).
# Active and inactive are the calls of the source. The rule behind the calls is not given here.
# Assays:
# HCT-116 [1] = assay: Disruption of membrane integrity in human HCT116 cells assessed as increase in non-viable cells at 6 uM measured after 48 hrs by propidium iodide staining based flow cytometry relative to control; assay type: functional
# HCT-116 [2] = assay: Induction of autophagy in human HCT116 cells increase in Beclin 1 level at 3 uM measured after 48 hrs by Western blot analysis; assay type: functional, cell-based
# HCT-116 [3] = assay: Cell cycle arrest in human HCT116 cells assessed as accumulation at G0/G1 phase at 3 uM measured after 48 hrs by propidium iodide staining based flow cytometry (reference value: 41.67 %); assay type: functional
# HCT-116 [4] = assay: Induction of apoptosis in human HCT116 cells assessed as late apoptotic cells at 3 uM measured after 48 hrs by annexinV-PE/7-AAD staining based flow cytometric analysis (reference value: 0.18 %); assay type: functional
# HCT-116 [5] = assay: Induction of morphological changes in human HCT116 cells assessed as increase in size of intracellular vesicles at 1.5 to 6 uM measured after 48 hrs by propidium iodide staining based flow cytometry; assay type: functional, cell-based
# HCT-116 [6] = assay: Cell cycle arrest in human HCT116 cells assessed as accumulation at G0/G1 phase at 6 uM measured after 48 hrs by propidium iodide staining based flow cytometry (reference value: 41.67 %); assay type: functional
# HL-60 [7] = assay: Cytotoxicity against human HL60 cells assessed as reduction in cell viability measured after 72 hrs by MTT assay; assay type: functional, cell-based; details: HL-60, 72 h
# HCT-116 [8] = assay: Induction of apoptosis in human HCT116 cells assessed as early apoptotic cells at 3 uM measured after 48 hrs by annexinV-PE/7-AAD staining based flow cytometric analysis (reference value: 6.53 %); assay type: functional
# HCT-116 [9] = assay: Cell cycle arrest in human HCT116 cells assessed as accumulation at G2/M phase at 6 uM measured after 48 hrs by propidium iodide staining based flow cytometry (reference value: 24.98 %); assay type: functional
# L929 = assay: Cytotoxicity against mouse L929 cells assessed as reduction in cell viability measured after 72 hrs by MTT assay; assay type: cell-based; details: L929, 72 h
# HCT-116 [10] = assay: Induction of apoptosis in human HCT116 cells assessed as increase in caspase 7 expression at 3 to 6 uM measured after 48 hrs by Western blot analysis; assay type: functional, cell-based
# HCT-116 [11] = assay: Induction of morphological changes in human HCT116 cells assessed as increase in number of intracellular vesicles at 1.5 to 6 uM measured after 48 hrs by propidium iodide staining based flow cytometry; assay type: functional, cell-based
# HL-60 [12] = assay: Cytotoxicity against human HL60 cells assessed as cell growth inhibition at 5 ug/ml measured after 72 hrs by MTT assay relative to control; assay type: functional; details: HL-60, 72 h, read-out: GI
# HCT-116 [13] = assay: Cytotoxicity against human HCT116 cells assessed as cell growth inhibition at 5 ug/ml measured after 72 hrs by MTT assay relative to control; assay type: functional; details: HCT-116, 72 h, read-out: GI
# HCT-116 [14] = assay: Induction of apoptosis in human HCT116 cells assessed as late apoptotic cells at 6 uM measured after 48 hrs by annexinV-PE/7-AAD staining based flow cytometric analysis (reference value: 0.18 %); assay type: functional
# HCT-116 [15] = assay: Cell cycle arrest in human HCT116 cells assessed as accumulation at G2/M phase at 3 uM measured after 48 hrs by propidium iodide staining based flow cytometry (reference value: 24.98 %); assay type: functional
# HCT-116 [16] = assay: Cell cycle arrest in human HCT116 cells assessed as accumulation at S phase at 3 uM measured after 48 hrs by propidium iodide staining based flow cytometry (reference value: 33.29 %); assay type: functional
# HCT-116 [17] = assay: Cell cycle arrest in human HCT116 cells assessed as accumulation at S phase at 6 uM measured after 48 hrs by propidium iodide staining based flow cytometry (reference value: 33.29 %); assay type: functional
# HCT-116 [18] = assay: Disruption of membrane integrity in human HCT116 cells assessed as decrease in viable cells at 3 uM measured after 48 hrs by propidium iodide staining based flow cytometry relative to control; assay type: functional
# HCT-116 [19] = assay: Induction of apoptosis in human HCT116 cells assessed as late apoptotic cells at 6 uM measured after 48 hrs by annexin-V staining based flow cytometry (reference value: 0.34 %); assay type: functional
# HCT-116 [20] = assay: Induction of morphological changes in human HCT116 cells assessed as increase in cell size at 1.5 to 6 uM measured after 48 hrs by propidium iodide staining based flow cytometry; assay type: functional
# HCT-116 [21] = assay: Induction of apoptosis in human HCT116 cells assessed as live cells at 1.5 uM measured after 48 hrs by annexinV-PE/7-AAD staining based flow cytometric analysis (reference value: 91.42 %); assay type: functional
# OVCAR-8 = assay: Cytotoxicity against human OVCAR8 cells assessed as cell growth inhibition at 5 ug/ml measured after 72 hrs by MTT assay relative to control; assay type: functional; details: OVCAR-8, 72 h, read-out: GI
# HCT-116 [22] = assay: Induction of apoptosis in human HCT116 cells assessed as late apoptotic cells at 1.5 uM measured after 48 hrs by annexinV-PE/7-AAD staining based flow cytometric analysis (reference value: 0.18 %); assay type: functional
# HCT-116 [23] = assay: Disruption of membrane integrity in human HCT116 cells at 1.5 to 3 uM measured after 48 hrs by propidium iodide staining based flow cytometry; assay type: functional, cell-based
# HCT-116 [24] = assay: Induction of autophagy in human HCT116 cells increase in LC3A/B-II level at 3 to 6 uM measured after 48 hrs by Western blot analysis; assay type: functional, cell-based
# HCT-116 [25] = assay: Disruption of membrane integrity in human HCT116 cells assessed as increase in non-viable cells at 3 uM measured after 48 hrs by propidium iodide staining based flow cytometry relative to control; assay type: functional
# HCT-116 [26] = assay: Induction of autophagy in human HCT116 cells decrease in Beclin 1 level at 6 uM measured after 48 hrs by Western blot analysis; assay type: functional, cell-based
# HCT-116 [27] = assay: Cell cycle arrest in human HCT116 cells assessed as accumulation at S phase at 1.5 uM measured after 48 hrs by propidium iodide staining based flow cytometry (reference value: 33.29 %); assay type: functional
# SF-295 = assay: Cytotoxicity against human SF295 cells assessed as reduction in cell viability measured after 72 hrs by MTT assay; assay type: functional, cell-based; details: SF-295, 72 h
# HCT-116 [28] = assay: Induction of DNA fragmentation in human HCT116 cells at 6 uM measured after 48 hrs by propidium iodide staining based flow cytometry relative to control; assay type: functional
# HCT-116 [29] = assay: Induction of apoptosis in human HCT116 cells assessed as early apoptotic cells at 6 uM measured after 48 hrs by annexin-V staining based flow cytometry (reference value: 0.34 %); assay type: functional
# HCT-116 [30] = assay: Induction of apoptosis in human HCT116 cells assessed as necrotic cells at 1.5 uM measured after 48 hrs by annexinV-PE/7-AAD staining based flow cytometric analysis (reference value: 0.16 %); assay type: functional
# HCT-116 [31] = assay: Cytotoxicity against human HCT116 cells assessed as reduction in cell viability measured after 24 hrs by MTT assay; assay type: functional, cell-based; details: HCT-116, 24 h
# HCT-116 [32] = assay: Induction of autophagy in human HCT116 cells assessed as formation of acidic vesicular organelles at 3 to 6 uM measured after 48 hrs by acridine orange staining based confocal microscopy; assay type: functional, cell-based
# HCT-116 [33] = assay: Induction of morphological changes in human HCT116 cells assessed as decrease in number of mitotic cells at 1.5 to 6 uM measured after 48 hrs by propidium iodide staining based flow cytometry; assay type: functional, cell-based
smiles,measurement,setting,value
C(=N\Nc1cnc2ccccc2n1)/c1ccccn1,Activity,HCT-116 [1],31.36%
same,Activity,HCT-116 [2],Active
same,Activity,HCT-116 [3],14.45%
same,Activity,HCT-116 [4],2.55%
same,Activity,HCT-116 [5],Active
same,Activity,HCT-116 [6],64.85%
same,IC50,HL-60 [7],820 nM
same,Activity,HCT-116 [8],5.18%
same,Activity,HCT-116 [9],5.8%
same,IC50,L929,2270 nM
same,Activity,HCT-116 [10],Active
same,Activity,HCT-116 [11],Active
same,inhibition of growth at 5 µg/mL,HL-60 [12],94.8%
same,inhibition of growth at 5 µg/mL,HCT-116 [13],80.4%
same,Activity,HCT-116 [14],17.9%
same,Activity,HCT-116 [15],30.19%
same,Activity,HCT-116 [16],55.35%
same,Activity,HCT-116 [17],29.41%
same,Activity,HCT-116 [18],90.45%
same,Activity,HCT-116 [19],25.6%
same,Activity,HCT-116 [20],Active
same,Activity,HCT-116 [21],89.63%
same,inhibition of growth at 5 µg/mL,OVCAR-8,97.8%
same,Activity,HCT-116 [22],1.14%
same,Activity,HCT-116 [23],inactive
same,Activity,HCT-116 [24],Active
same,Activity,HCT-116 [25],9.46%
same,Activity,HCT-116 [26],Active
same,Activity,HCT-116 [27],34.31%
same,IC50,SF-295,3880 nM
same,Activity,HCT-116 [28],3.89%
same,Activity,HCT-116 [29],25.6%
same,Activity,HCT-116 [30],0.63%
same,IC50,HCT-116 [31],> 20000 nM
same,Activity,HCT-116 [32],Active
same,Activity,HCT-116 [33],Active
